Assay [1] relates to CaSki (human cervical cancer intestinal metastatic cells). Nature of the assay: In vitro proliferation inhibition (CCK-8), CaSki. It is filed as cell-based. As to conditions: Ca-Ski, 72 hours, CCK-8, average of three wells in one test. The text has this:
• 1) Cell sources: HeLa (human cervical cancer cells), CaSki (human cervical cancer intestinal metastasis cells), Huh7 (human liver cancer cells), HepG2 (human liver cancer cells), Hep3B (human liver cancer cells) were purchased from the Chinese Academy of Sciences cell bank (Shanghai); LO2 (human normal liver cells) and HcerEpic (human normal uterine epithelial cells) were from ATCC. • 2) Cell culture and passage: The cell culture and passage method is the same as that described in “The inhibitory effect of compounds on the OCT4 protein in tumor stem cells (CSC)”. • 3) Cell dosing treatment: The each type of cells mentioned above was digested, counted, and inoculated in each well of the 96 well cell culture plate (#3988, Corning) at a density of 5000 cells/200 μl culture medium. […] Then, the original culture medium was replaced with complete culture medium containing gradient diluted KZT-A5 (each concentration with 3 repeated wells) as well as DMSO (#D5879, Sigma Aldrich) solvent control, and they are cultured for additional 72 hours. • 4) Pharmacodynamic test and statistics: First, the morphology of cells treated with the above compounds was observed, photographed and recorded using an inverted phase contrast microscope (X71, Olympus). […] Then the OD450 nm absorbance value (OD value) was measured on a multifunctional enzyme-linked immunosorbent assay (168-1130, Bio Rad). […]

Assay [2] concerns HeLa cells. Nature of the assay: Tumor microspheres cultured in HeLa cells. It is filed as cell-based, human. As to conditions: 10 μM, 48 hours. Here is the method:
(§1) • 1) Cell sources: cervical cancer cells HeLa and Caski, liver cancer cells Hep3B and Huh7 were all purchased from the Chinese Academy of Sciences cell bank (Shanghai). • 2) Tumor microsphere culture: The specific culture method for tumor microspheres can be found in the literature (Cheng J et al. Tryptophan derivatives regulate the transfer of Oct4 in stem-like cancer cells. Nat Commun. 2015, 6:7209). Each tumor cell was cultured separately in a medium containing 2% B27, 10 ng/ml BFGF, 5 ng/ml EGF, and 10 ng/ml LIF to form CSC rich tumor microspheres. • 3) Cell dosing treatment: HeLa cell lines and Huh7 cell lines were inoculated in a 6-well plate containing the aforementioned culture medium at a density of 200 cells per well, while Hep3B cell lines and Caski cell lines were inoculated in a 6-well plate containing the aforementioned culture medium at a density of 2000 cells per well. KZT-A5 or AH057 at concentrations of 1 μM or 10 μM was added, and the morphology of tumor microspheres was observed, photographed and recorded after 48 hours of treatment.

Assay [3] relates to HepG2 (human liver cancer cells). Nature of the assay: In vitro proliferation inhibition (CCK-8), HepG2. It is filed as cell-based. As to conditions: for IC50: Homo sapiens. An excerpt:
(§2) • 1) Cell sources: HeLa (human cervical cancer cells), CaSki (human cervical cancer intestinal metastasis cells), Huh7 (human liver cancer cells), HepG2 (human liver cancer cells), Hep3B (human liver cancer cells) were purchased from the Chinese Academy of Sciences cell bank (Shanghai); LO2 (human normal liver cells) and HcerEpic (human normal uterine epithelial cells) were from ATCC. • 2) Cell culture and passage: The cell culture and passage method is the same as that described in “The inhibitory effect of compounds on the OCT4 protein in tumor stem cells (CSC)”. • 3) Cell dosing treatment: The each type of cells mentioned above was digested, counted, and inoculated in each well of the 96 well cell culture plate (#3988, Corning) at a density of 5000 cells/200 μl culture medium. They were cultured in a cell culture incubator at 37° C. and 5% CO2 for 24 hours to allow the cells to fully adherent to the wall. Then, the original culture medium was replaced with complete culture medium containing gradient diluted KZT-A5 (each concentration with 3 repeated wells) as well as DMSO (#D5879, Sigma Aldrich) solvent control, and they are cultured for additional 72 hours. • 4) Pharmacodynamic test and statistics: First, the morphology of cells treated with the above compounds was observed, photographed and recorded using an inverted phase contrast microscope (X71, Olympus). Then the original culture medium was replaced with phenol red free culture medium containing CCK-8 detection reagent (#E606335, Shanghai Shenggong) respectively, and they are cultured in the incubator for additional 2 hours. Then the OD450 nm absorbance value (OD value) was measured on a multifunctional enzyme-linked immunosorbent assay (168-1130, Bio Rad). After the cells were treated with the test compound, the equations for calculating the cell survival rate or cell growth rate is: survival rate=GD value of the treated group/OD value of the control group×100%; the equations for calculating the growth inhibition rate of compounds on cell proliferation is: inhibition rate=(OD value of control group−OD value of the treated group)/OD value of control group×100%. Further, the IC50 of each compound was calculated in SPSS based on the inhibition rate. […]

Assay [4] deals with LO2 (human normal liver cells). Nature of the assay: In vitro proliferation inhibition (CCK-8), LO2. Format: cell-based. An excerpt: • 1) Cell sources: HeLa (human cervical cancer cells), CaSki (human cervical cancer intestinal metastasis cells), Huh7 (human liver cancer cells), HepG2 (human liver cancer cells), Hep3B (human liver cancer cells) were purchased from the Chinese Academy of Sciences cell bank (Shanghai); LO2 (human normal liver cells) and HcerEpic (human normal uterine epithelial cells) were from ATCC. • 2) Cell culture and passage: The cell culture and passage method is the same as that described in “The inhibitory effect of compounds on the OCT4 protein in tumor stem cells (CSC)”. • 3) Cell dosing treatment: The each type of cells mentioned above was digested, counted, and inoculated in each well of the 96 well cell culture plate (#3988, Corning) at a density of 5000 cells/200 μl culture medium. They were cultured in a cell culture incubator at 37° C. and 5% CO2 for 24 hours to allow the cells to fully adherent to the wall. Then, the original culture medium was replaced with complete culture medium containing gradient diluted KZT-A5 (each concentration with 3 repeated wells) as well as DMSO (#D5879, Sigma Aldrich) solvent control, and they are cultured for additional 72 hours. • 4) Pharmacodynamic test and statistics: First, the morphology of cells treated with the above compounds was observed, photographed and recorded using an inverted phase contrast microscope (X71, Olympus). Then the original culture medium was replaced with phenol red free culture medium containing CCK-8 detection reagent (#E606335, Shanghai Shenggong) respectively, and they are cultured in the incubator for additional 2 hours. Then the OD450 nm absorbance value (OD value) was measured on a multifunctional enzyme-linked immunosorbent assay (168-1130, Bio Rad). […] Further, the IC50 of each compound was calculated in SPSS based on the inhibition rate. […]

In assay [5] the test system is HeLa cells. Nature of the assay: Clone formation of HeLa cells, single drugs and combination. It is filed as cell-based, human. As to conditions: 700 nM KZT-A5, 100 nM SGI-1027, two weeks, compared with DMSO control, FIG. 7. The text has this: • 1) Cell source: HeLa cells were purchased from the Chinese Academy of Sciences Cell Bank (Shanghai). • 2) Cell culture and passage: The cell culture and passage method is the same as that described in “Inhibition of OCT4 protein in tumor stem cells (CSCs) by compounds”. • 3) Cell dosing treatment: The cells were inoculated into a 6-well plate containing the aforementioned culture medium at a density of 200 cells per well. They were divided into four groups, and DMSO (as blank control group), 700 nM KZT-A5 (as KZT-A5 single drug group), 100 nM SGI-1027 (as SGI-1027 single drug group), and 700 nM KZT-A5+100 nM SGI-1027 (as combination group) was added respectively. After two weeks, they were photographed, and the number of clones was counted in each group respectively.

For a further assay, the system named is Huh7 cells. Description: Tumor microspheres cultured in Huh7 cells. As to conditions: Huh7, 1 μM, 48 hours. It is filed as cell-based, human. The protocol:
as §1

For assay [6], the system named is Hep3B (human liver cancer cells). Description: In vitro proliferation inhibition (CCK-8), Hep3B. Particulars: for IC50: Homo sapiens. Format: cell-based.
From the text: as §2

Assay [7] has as its system Huh7 (human liver cancer cells). Description: In vitro proliferation inhibition (CCK-8), Huh7. Format: cell-based. The text has this:
• 1) Cell sources: HeLa (human cervical cancer cells), CaSki (human cervical cancer intestinal metastasis cells), Huh7 (human liver cancer cells), HepG2 (human liver cancer cells), Hep3B (human liver cancer cells) were purchased from the Chinese Academy of Sciences cell bank (Shanghai); LO2 (human normal liver cells) and HcerEpic (human normal uterine epithelial cells) were from ATCC. • 2) Cell culture and passage: The cell culture and passage method is the same as that described in “The inhibitory effect of compounds on the OCT4 protein in tumor stem cells (CSC)”. • 3) Cell dosing treatment: The each type of cells mentioned above was digested, counted, and inoculated in each well of the 96 well cell culture plate (#3988, Corning) at a density of 5000 cells/200 μl culture medium. They were cultured in a cell culture incubator at 37° C. and 5% CO2 for 24 hours to allow the cells to fully adherent to the wall. Then, the original culture medium was replaced with complete culture medium containing gradient diluted KZT-A5 (each concentration with 3 repeated wells) as well as DMSO (#D5879, Sigma Aldrich) solvent control, and they are cultured for additional 72 hours. • 4) Pharmacodynamic test and statistics: First, the morphology of cells treated with the above compounds was observed, photographed and recorded using an inverted phase contrast microscope (X71, Olympus). Then the original culture medium was replaced with phenol red free culture medium containing CCK-8 detection reagent (#E606335, Shanghai Shenggong) respectively, and they are cultured in the incubator for additional 2 hours. Then the OD450 nm absorbance value (OD value) was measured on a multifunctional enzyme-linked immunosorbent assay (168-1130, Bio Rad). After the cells were treated with the test compound, the equations for calculating the cell survival rate or cell growth rate is: survival rate=GD value of the treated group/OD value of the control group×100%; the equations for calculating the growth inhibition rate of compounds on cell proliferation is: inhibition rate=(OD value of control group−OD value of the treated group)/OD value of control group×100%. Further, the IC50 of each compound was calculated in SPSS based on the inhibition rate.
• 1) Cell sources: Huh7 (human liver cancer cells), HepG2 (human liver cancer cells), Hep3B (human liver cancer cells), and HeLa (human cervical cancer cells) were all purchased from the Chinese Academy of Sciences cell bank (Shanghai), while LO2 (human normal liver cells) was obtained from ATCC. • 2) Cell culture and passage: The cell culture and passage method is the same as that described in “The inhibitory effect of compounds on human tumor cell lines from different tissue sources (1)”. • 3) Cell dosing treatment: The cell dosing treatment method is the same as that described in “The inhibitory effect of compounds on human tumor cell lines from different tissue sources (1). • 4) Pharmacodynamic test and statistics: The pharmacodynamic test and statistics method is the same as that described in “The inhibitory effect of compounds on human tumor cell lines from different tissue sources (1)”. The IC50 value data of the compound on each type of tumor cells is the average±standard deviation of three wells in one test.

Some results are limits rather than exact numbers.

With `COc1cc(/C=C2\CCc3c([nH]c4ccc(C)cc34)C2=O)ccc1O` [KZT-A5], the IC50 is 6.38 µM in assay [1]; 3.13 µM in assay [3] (HepG2, 72 hours, CCK-8, average of three wells in one test); 3.16 ± 0.08 µM in assay [3] (HepG2, test (2), average±standard deviation of three wells); 82.1 µM in assay [4] (LO2, 72 hours, CCK-8, average of three wells in one test); 96.5 ± 13 µM in assay [4] (LO2, test (2), average±standard deviation of three wells); 36.6 µM in assay [6] (72 hours, CCK-8, average of three wells in one test). In addition, the IC50 is 23.5 ± 1.51 µM in assay [6] (test (2), average±standard deviation of three wells); less than 1 µM in assay [7] (Homo sapiens, Huh-7, 72 h, Huh7, 72 hours, CCK-8, average of three wells in one test); 1.42 ± 0.12 µM in assay [7] (Homo sapiens, Huh-7, Huh7, test (2), average±standard deviation of three wells); 0.8 µM in assay [7] (Huh7, 72 hours, CCK-8, average of three wells in one test). For the same molecule, the “inhibitory effect on tumor microspheres compared with AH057” value with HeLa cells [2] is given as “more significant than that of the control compound AH057”; in the assay on Huh7 cells, “more significant inhibitory effect compared with the same concentration of AH057”. Also, the “inhibitory effect on viability compared with AH057” value is reported as “more significant inhibitory effect” in assay [3] (HepG2, FIG. 6) and “more significant inhibitory effect” in assay [7] (Huh7, FIG. 6). The “inhibition of clone formation” value with HeLa cells [5] is “significantly inhibits clone formation”. Besides, the “inhibitory effect compared with AH057” value in assay [6] (Table 3) is “comparable to AH057”.

A word on the IC50: it is the concentration that inhibits the measured activity by half. A higher IC50 goes with weaker potency in that assay.

(Values after patent US20250034089A1, “TETRAHYDROCARBAZOLE COMPOUND, AND PHARMACEUTICAL COMPOSITION AND USE THEREOF” (NAIN BIOTECH (HANGZHOU) CO., LTD., priority 2021, published 2025).)
